From US5654116A, “Hologram” (priority 1993, dated 1997)

Tests used:
[1] = Skin irritativeness, SPI value (skin irritation value of epoxy); conditions: for Toxicity Skin Irritativeness (SPI · %): ingredient of the adhesive of Example 5, Table 1
[2] = Toxicity of adhesive ingredients, LD 50 (Table 1); format: in vivo; conditions: ingredient of the adhesive of Example 5, Table 1

| Compound | Toxicity Skin Irritativeness (SPI · %) [1] [SPI · %] | skin irritativeness ([1]; result in words) | Toxicity LD 50 [2] [mg/kg] |
| --- | --- | --- | --- |
| O=C1OC(=O)C2CC=CCC12 (stereo not shown) [alicyclic acid anhydride II, Tetrahydrophthalic anhydride] | 3 | low skin irritativeness |  |
| hydrogenated bisphenol A type epoxy [alicyclic epoxy] | 3 |  | 3900 |
